Data as given in patent US20090156620A1, “[4-(6-FLUORO-7-METHYLAMINO-2,4-DIOXO-1,4-DIHYDRO-2H-QUINAZOLIN-3-YL)-PHENYL]-5-CHLORO-THIOPHEN-2-YL-SULFONYLUREA SALTS, FORMS AND METHODS RELATED THERETO” (Portola Pharmaceuticals, Inc., priority 2007, published 2009).

Tests used:
[1] = target: T1, P2Y12 receptor on platelets (Homo sapiens, UniProt Q9H244); test: platelet ADP receptor binding assay (ARB), inhibition of [3H]2-MeS-ADP binding to platelets
T1 construct: endogenous in cells; host or cells: whole apyrase-washed human platelets (outdated from hospital blood banks, or fresh)
Procedure: 1. The Ability of Candidate Molecules to Inhibit the Binding of [3H]2-MeS-ADP to the P2Y12 Receptor on Platelets was Determined Using a Radioligand Binding Assay
Utilizing this assay the potency of inhibition of such compounds with respect to [^3H]2-MeS-ADP binding to whole platelets is determined. Under the conditions described in II (3) below, the binding of [^3H]2-MeS-ADP is solely due to the interaction of this ligand with the P2Y12 receptor, in that all the specific binding measured in this assay is compatable with a P2Y12 antagonist (i.e., the specific binding is reduced to background levels by competition with an excess of P2Y12 antagonist, with no competition of binding when a P2Y1 antagonist is pre-incubated with the platelet preparation). […]
A platelet ADP receptor binding assay (ARB) using the tritiated potent agonist ligand [^3H]2-MeS-ADP (Jantzen, H. M. et al. (1999) Thromb. Hemost. 81:111-117) has been adapted to the 96-well microtiter format. […] Total binding is determined in the absence of test compounds. […] The platelet-bound radioactivity on the filtermats is determined in a scintillation counter (Microbeta 1450, Wallac Inc., Gaithersburg, Md.). Specific binding is determined by subtraction of non-specific binding from total binding, and specific binding in the presence of test compounds is expressed as % of specific binding in the absence of test compound dilutions. […]

[2] = tested on: ADP-induced human platelet aggregation; test: inhibition of ADP-mediated platelet aggregation in platelet-rich plasma (PRP assay); assay type: cell-based
Procedure: The effect of testing the compound according to the invention on ADP-induced human platelet aggregation was assessed in a 96-well microtiter assay (see generally the procedures in Jantzen, H. M. et al. (1999) Thromb. Hemost. 81:111′-117) or standard cuvette light transmittance aggregometry using either human platelet-rich plasma (PRP) or human washed platelets.
For preparation of human platelet-rich plasma for aggregation assays, human venous blood was collected from healthy, drug-free volunteers into 0.38% sodium citrate (0.013 M, pH 7.0 final). Platelet-rich plasma (PRP) is prepared by centrifugation of whole blood at 160×g for 20 minutes at room temperature. […]
For cuvette light transmittance aggregation assays, serial dilutions (1:3) of test compounds were prepared in 100% DMSO in a 96 well V-bottom plate (final DMSO concentration in the cuvette was 0.6%). […] The aggregation reaction is recorded for ˜5 mins, and maximum extent of aggregation is determined by the difference in extent of aggregation at baseline, compared to the maximum aggregation that occurs during the five minute period of the assay. Inhibition of aggregation was calculated as the maximum aggregation observed in the presence of inhibitor, compared to that in the absence of inhibitor. […]

[3] = accelerated stability test, chemical purity; assay type: physicochemical; details: one week, 40° C., 75% RH
Procedure: Purity analysis was performed on an Agilent HP1100 system equipped with a diode array detector and using ChemStation software v9.

[4] = gravimetric vapour sorption (GVS); assay type: physicochemical
Procedure: Sorption isotherms were obtained using a Hiden IGASorp moisture sorption analyser, controlled by CFRSorp software. The sample temperature was maintained at 25° C. by a Huber re-circulating water bath. The humidity was controlled by mixing streams of dry and wet nitrogen, with a total flow rate of 250 ml.min^−1. […] (typical room conditions). A moisture sorption isotherm was performed as outlined below (2 scans giving 1 complete cycle). […] The software uses a least squares minimisation procedure together with a model of the mass relaxation, to predict an asymptotic value. […] The minimum equilibration time was set to 1 hour and the maximum to 4 hours. The sample was recovered after completion of the isotherm and re-analysed by XRPD.

[5] = solid form stability of API dispersed in aqueous vehicle; assay type: physicochemical; details: dry ground API dispersed into aqueous 0.1M phosphate buffer
Description: It was observed that after grinding the API with the diluent of Tox formulation, i.e., 0.5% methylcellulose and 0.1M phosphate sodium buffer at pH7.4, the drug particles became very dense and quickly precipitated during transfer and dosing. […] In addition, if only dry grinding is used to reduce the particle size of the API first and subsequently, the API is quickly dispersed into aqueous 0.1M phosphate buffer without applying significant mechanical stress, the solid form of the API can be maintained in form B for at least 6 hours.

[6] = solid form stability on storage at elevated temperature/humidity, by XRPD; assay type: physicochemical; details: 75% RH/40° C. for up to 6 months
Procedure: To 20 mg of [4-(6-fluoro-7-methylamino-2,4-dioxo-1,4-dihydro-2H-quinazolin-3-yl)-phenyl]-5-chloro-thiophen-2-yl-sulfonylurea in 3 mL of the various solvents, was added 1.1 eq. of the base in 1 mL solvent. The mixture was shaken for 2 hours and the solutions were left to evaporate down to half their volume to try to precipitate out the salt. […] Oils/emulsions and opaque liquids were left to maturate at 50° C./ambient in an 8 hour cycles for several weeks. […] Solid samples (crystalline and amorphous) were then filtered, dried and then analyzed to judge their purity, crystallinity and stability. Solids were analysed by ^1H NMR to confirm salt formation and analyzed by ion chromatography and TGA to obtain the stoichiometry of the salt.

[7] = polymorphism experiments, form B slurried in solvents; assay type: physicochemical; details: ca. 50 mg in ten volumes, ambient, two hours
Description: The propensity of [4-(6-fluoro-7-methylamino-2,4-dioxo-1,4-dihydro-2H-quinazolin-3-yl)-phenyl]-5-chloro-thiophen-2-yl-sulfonylurea potassium salt form B to form polymorphs was studied. Form B (a hemi-hydrate) was slurried in a range of solvents (neat and mixtures). The solvents were chosen based on their pharmaceutical acceptability and also a range of functional groups and polarities such as alcohols, ethers and esters. To encourage hydrate formation, aqueous mixtures were also chosen. The solvents used are detailed in Table 7.
Approximately 50 mg of [4-(6-fluoro-7-methylamino-2,4-dioxo-1,4-dihydro-2H-quinazolin-3-yl)-phenyl]-5-chloro-thiophen-2-yl-sulfonylurea potassium salt, form B was suspended in ten volumes of the solvents detailed in table 7 and stirred at ambient for two hours. […] The suspensions were filtered under vacuum and analysed by XRPD. Most of the solids remained as form B, with a 1:1 acetone/water mixture leading to a subtle change in solid form. The 1:1 tetrahydrofuran/water mixture generated a mixture of that subtly different form and form B.
To all the form B samples a further aliquot of five volumes of appropriate solvent was added and the suspensions were slurried at 50° C. for 4 hours then cooled to ambient for 4 hours. This cycle was repeated for a total of 24 hours, after which time the suspensions were filtered under vacuum and analysed by XRPD.

T1 sequence (Q9H244 whole entry): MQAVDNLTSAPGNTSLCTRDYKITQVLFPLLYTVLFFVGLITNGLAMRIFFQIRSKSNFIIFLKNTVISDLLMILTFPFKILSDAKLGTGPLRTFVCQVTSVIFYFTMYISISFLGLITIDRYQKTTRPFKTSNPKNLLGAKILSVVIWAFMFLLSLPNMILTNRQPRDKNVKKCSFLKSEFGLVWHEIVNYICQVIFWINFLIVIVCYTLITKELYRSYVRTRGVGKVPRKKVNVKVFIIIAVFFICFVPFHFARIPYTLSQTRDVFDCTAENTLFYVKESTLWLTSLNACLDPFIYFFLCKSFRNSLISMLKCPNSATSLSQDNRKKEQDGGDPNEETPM

| time the solid form is maintained in form B [5] | XRPD after the GVS experiment [4] | change in solid state [6] | Compound | IC50 [1] [µM] | IC50 [2] [µM] | change in the chemical purity [3] | hygroscopicity [4] | RH range in which the 2.5 hydrate is stable ([4]; 25° C.) | dehydration ([4]; 25° C.) | solvents that dissolved the salt [7] |
| --- | --- | --- | --- | --- | --- | --- | --- | --- | --- | --- |
|  |  |  | CNc1cc2[nH]c(=O)n(-c3ccc(NC(=O)NS(=O)(=O)c4ccc(Cl)s4)cc3)c(=O)c2cc1Cl [Example 3, [4-(6-chloro-7-methylamino-2,4-dioxo-1,4-dihydro-2H-quinazolin-3-yl)-phenyl]-5-chloro-thiophen-2-1-sulfonylurea] | > 0.5 | > 30 |  |  |  |  |  |
|  |  |  | CNc1cc2[nH]c(=O)n(-c3ccc(NC(=O)NS(=O)(=O)c4ccc(Cl)s4)cc3)c(=O)c2cc1F.[K] [Form A of the potassium salt, [4-(6-fluoro-7-methylamino-2,4-dioxo-1,4-dihydro-2H-quinazolin-3-yl)-phenyl]-5-chloro-thiophen-2-yl-sulfonylurea potassium salt 2.5 hydrate] |  |  | No change | less hygroscopic than the amorphous form of the sodium salt | 20-90 % RH | dehydrates between 20 and 0% RH |  |
| at least 6 hours | no phase change | no change in solid state | [4-(6-fluoro-7-methylamino-2,4-dioxo-1,4-dihydro-2H-quinazolin-3-yl)-phenyl]-5-chloro-thiophen-2-yl-sulfonylurea potassium salt hemi hydrate [Form B of the potassium salt] |  |  |  | non-hygroscopic |  |  | 2-methoxyethanol was the only solvent that dissolved the potassium salt |
